Measured values reported in patent publication US6558699B2, “High drug load immediate and modified release oral dosage formulations and processes for their manufacture” (SmithKline Beecham Corporation, priority 1997, dated 2003).

Key:
[1] = Human clinical studies (tolerability and pharmacokinetics); assay type: in vivo; conditions: for safety and tolerability: human clinical studies, doses up to 800 mg per day
[2] = Drug release from enteric-coated modified release tablets and drug solubility at the initiation pH; conditions: pH >4.0 (PVAP), >5.0 (HPMCP), 5.5 (Eudragit)
Text: Tablets of Formulas 1-4 may be optionally provided with an aqueous film coating. Generally, these tablets are coated first with a polymer solution to form a clear film, and then coated with an aqueous polymer solution/suspension to form an opaque, white or colored film. […] In contrast, tablets of Formulas 5-7 are first coated with an aqueous polymer solution to form a clear film (often called seal coat) and then with an aqueous solution/suspension of an enteric polymer such as Eudragit L30D, hydroxypropyl methycellulose acetate phthalate (HPMCP), cellulose acetate phthalate (CAP) or polyvinyl acetate phthalate (PVAP). The weight gains following seal coat and enteric coat are about 3-6% and 4-12% (most preferably 3-4% and 4-6%) respectively. The modified release tablets thus produced release <20% drug in the stomach following the oral administration and rapidly release the drug at higher pHs, depending on the polymer used (for e.g., at a pH >4.0 for PVAP, >5.0 for HPMCP and 5.5 for Eudragit), even though the drug solubility at these initiation pHs is negligible. The water imbibed into the tablets dissolves arginine creating a high pH environment in which Eprosartan dissolves. This high pH also dissolves the film coating, releasing the drug substance to the environment.

[3] = Hydrate formation during wet granulation (TGA, DSC, XRD); assay type: physicochemical; conditions: wet granulation with water
Text: (§1) FIGS. 1(A), 2(A) and 3(A) show, respectively, the thermogravimetric analysis (TGA), the differential scanning calorimetric (DSC) thermogram and the powder X-ray diffraction (XRD) pattern of the free base of anhydrous (E)-α-[2-n-butyl-1-[(4-carboxyphenyl)methyl]-1H-imidazol-5-yl]methylene-2-thiophenepropionic acid.
as §1, with “1B-D, 2B-D” for “1(A), 2(A)”, “3B-D” for “3(A)”, “patterns for the granulations” for “pattern”, “acid with different binders and binder-diluent combinations.” for “acid.”
FIGS. 1B, 2B and 3B show, respectively, the thermogravimetric analysis (TGA), the differential scanning calorimetric (DSC) thermogram and the powder X-ray diffraction (XRD) patterns for the granulations of (E)-α-[2-n-butyl-1-[(4-carboxyphenyl)methyl]-1H-imidazol-5-yl]methylene-2-thiophenepropionic acid with Starch 1551 (96/4 eprosartan free base/Starch 1551). […]

drug solubility at the initiation pHs [2] | hydrate formation during wet granulation [3] | Compound | safety and tolerability [1] | bioavailability ([1]; human, in vivo, oral, read-out: mean absolute bioavailability)
negligible | does not form a hydrate | CCCCc1ncc(/C=C(\Cc2cccs2)C(=O)O)n1Cc1ccc(C(=O)O)cc1 [Eprosartan, (E)-α-[2-n-Butyl-1-[(4-carboxyphenyl)methyl]-1H-imidazol-5-yl]methylene-2-thiophenepropionic acid] | safe and well tolerated | 
 | forms a dihydrate | CCCCc1ncc(/C=C(\Cc2cccs2)C(=O)O)n1Cc1ccc(C(=O)O)cc1.CS(=O)(=O)O [(E)-α-[2-n-Butyl-1-[(4-carboxyphenyl)-methyl]-1H-imidazol-5-yl]methylene-2-thiophenepropionic acid monomethanesulfonate] | safe and well tolerated | ~13%
